Patent US20130261986A1, “METHOD FOR DETERMINING LIPOPHILICITY” (ASTELLAS PHARMA INC., priority 2010, published 2013)

Key:
[1] = Lipophilicity determination by a shake-flask method (Comparative Example), 1-octanol/phosphate buffer pH 7.4, LC/MS; type: physicochemical; details: 1-octanol / phosphate buffer solution pH 7.4, shaken 10 minutes
[2] = Lipophilicity (logD7.4) determination according to the present invention, two 1-octanol/phosphate buffer solvent systems in 96 deep well plate, LC/MS; type: physicochemical; details: 1-octanol:phosphate buffer pH 7.4 at 5:95 and 50:50, 25° C., 3 hours shaking; for logD: read-out: LogD Inventive determination method (Example)
Procedure: Thirty-eight test compounds were determined for logD7.4 according to the present invention. The solution amount per well was set to 1 mL, and 1-octanol was used as a hydrophobic solvent and a phosphate buffer solution buffered at pH 7.4 as a hydrophilic solvent. The amounts of the test substance to be added to the first and second solvent systems, respectively, were adjusted to be equal (X=Y in Equation I). […] Following the above-mentioned conditions, X=Y, a=5, b=95, and c=d=50 were substituted into Equation I to obtain the following quadratic equation (Equation II). As described below, once the test substance was determined, the value of C2/C1 could be determined on the basis of the peak area values and dilution ratios. The resulting value was substituted into Equation II to determine the distribution ratio D, and the common logarithm of this ratio was obtained to thereby compute logD7.4.
Dispensing, shaking, dilution and other steps were automated by a dispensing robot (Hamilton; MicroLabSTARlet), and transfer of plates between systems and some other tasks were performed manually. The specific test procedure is as follows.
Dulbecco's reagent (for 1 L of Sigma's PBS solution; containing 8 g of sodium chloride, 1.15 g of anhydrous sodium monohydrogen phosphate, 0.2 g of potassium chloride, and 0.2 g of anhydrous potassium dihydrogen phosphate) was diluted to give a volume of 1 L, stirring was performed, and insoluble matters were filtered off. The pH of the solution was measured and adjusted to pH 7.4 with 1N HCl.
A separating funnel was charged with a sufficient amount of each of 1-octanol (Kanto Chemical; for distribution coefficient determination) and the phosphate buffer solution prepared in (1), they were mixed well, and the mixture was allowed to stand overnight at room temperature. The upper and lower phases were recovered separately to obtain 1-octanol saturated with the phosphate buffer solution (saturated 1-octanol) and the phosphate buffer solution saturated with 1-octanol (saturated phosphate buffer solution). The resulting solutions were stored at room temperature.
A test compound was added to DMSO to prepare a 10 mM solution.
(1) Ten microliters of the 10 mM test compound solution in DMSO and then 490 μL of saturated 1-octanol were dispensed into a 96 deep well plate. Stirring by suction and ejection was repeated 10 times to prepare a standard octanol solution of the test compound.
(2) Fifty microliters of the standard octanol solution was dispensed into each of two wells; thereafter, 950 μL of the saturated phosphate buffer solution was dispensed into the first well (hydrophobic solvent:hydrophilic solvent=5:95), and 500 μL of the saturated phosphate buffer solution and 450 μL of saturated 1-octanol were dispensed into the second well (hydrophobic solvent:hydrophilic solvent=50:50).
(3) A pressure curable sealant was applied to the multiwell plate, and then the plate was shaken on a shaker at 25° C. for 3 hours. After the shaking, centrifugation was performed at 3000 rpm for 5 minutes.
(4) The lower phase (aqueous phase) was drawn from the first well and diluted 10-fold with methanol to thereby prepare a sample. From the second well, the upper phase (1-octanol phase) was drawn and diluted 10-fold and 50-fold with methanol to thereby prepare two additional samples.
With these 4 samples placed on an LC/MS auto sampler, determination was performed automatically.
(3) The aqueous solution of 0.1% formic acid (solution A) and the acetonitrile solution of 0.1% formic acid (solution B) were used as a HPLC mobile phase.
(4) HPLC was performed using Waters Acquity with a binary pump. The column stationary phase used was a reversed-phase column having octadecyl groups (Acquity BEH C18, 1.7 μm, 2.0×30 mm). The column temperature was set to 50° C.
(5) MS was performed using Waters ZQ or SQD. Data was acquired with the detection mode being set to ESI^+ and the type of ion to be detected being set to [M+H]^+.

[3] = cited from earlier work

logD [1]	logD [2]	Structure (SMILES)	LogD Literature value [3]	LogD Inventive determination method (Example) [2]
1.8	2	NC(=O)N1c2ccccc2C=Cc2ccccc21 [Carbamazepine]	1.5	
3	3.2	CCc1ccc(CCOc2ccc(CC3SC(=O)NC3=O)cc2)nc1 (stereo not drawn) [Pioglitazone]		
0.8	0.8	CCOc1ccccc1OCCN[C@H](C)Cc1ccc(OC)c(S(N)(=O)=O)c1 [Tamsulosin]		
4.3	4.5	Cc1ccc(-c2cc(C(F)(F)F)nn2-c2ccc(S(N)(=O)=O)cc2)cc1 [Celecoxib]		
-0.3	0	CCCN(CCC)S(=O)(=O)c1ccc(C(=O)O)cc1 [Probenecid]		
1	0.9	CC(CCc1ccccc1)NCC(O)c1ccc(O)c(C(N)=O)c1 (stereo not drawn) [Labetalol]		
3.8	3.6	OCCN1CCN(CCCN2c3ccccc3Sc3ccc(Cl)cc32)CC1 [Perphenazine]		

Structure (SMILES)	logD [1]	logD [2]	LogD Literature value [3]	LogD Inventive determination method (Example) [2]
COc1ccc2c(c1)c(CC(=O)O)c(C)n2C(=O)c1ccc(Cl)cc1 [Indomethacin]	1.2		0.9	1.1
